The values below come from patent publication US6706740B2, “Fungicidal heterocyclic aromatic amides and their compositions, methods of use and preparation” (Dow AgroSciences LLC, priority 1999, dated 2004).

Read-outs that look alike come from different tables or passages of the source.

Assay [1] deals with Leptosphaeria nodorum—LEPTNO. Nature of the assay: Glume Blotch of Wheat, in vivo whole plant, 24 Hour Protectant. The settings on record: Leptosphaeria, control of fungal infection vs untreated plants, read-out: LEPTNO in vivo 1 Day Protectant.
For assay [2], the system named is Puccinia recondita—PUCCRT. Description: Brown Rust of Wheat, in vivo whole plant, 24 Hour Protectant. The settings on record: Puccinia, control of fungal infection vs untreated plants, read-out: PUCCRT in vivo 1 Day Protectant.
In assay [3] the test system is Magnaporthe grisea (Pyricularia oryzae—PYRIOR). Description: microbe, parasite or virus in culture. The settings on record: Pyricularia oryzae, read-out: PYRIOR in vitro Growth Inhibition. It is filed as cell-based.
The next assay concerns Erysiphe graminis—ERYSGT. Nature of the assay: Powdery Mildew of Wheat, in vivo whole plant, 24 Hour Protectant. The following applies: Erysiphe, control of fungal infection vs untreated plants, read-out: ERYSGT in vivo 1 Day Protectant.
The subject of assay [4] is Phytophthora infestans—PHYTIN. Nature of the assay: whole plant or invertebrate. The following applies: Phytophthora, in Solanum lycopersicum, 24 h, read-out: PHYTIN in vivo 1 Day Protectant. It is filed as in vivo.
For assay [5], the system named is Rhizoctonia solani (RHIZSO). Description: microbe, parasite or virus in culture. It is filed as cell-based. The settings on record: Rhizoctonia solani, read-out: RHIZSO in vitro Growth Inhibition.
For assay [6], the system named is Stagonospora nodorum (Leptosphaeria nodorum—LEPTNO). Nature of the assay: In vitro fungal growth inhibition, Stagonospora nodorum (LEPTNO). The class given is cell-based. The following applies: Leptosphaeria, read-out: LEPTNO in vitro Growth Inhibition.
In another assay the test system is Septoria tritici—SEPTTR. Nature of the assay: Leaf Blotch of Wheat, in vivo whole plant, 24 Hour Protectant. The following applies: Zymoseptoria tritici, 24 h, control of fungal infection vs untreated plants, read-out: SEPTTR in vivo 1 Day Protectant.
The subject of the next assay is Ustilago maydis (USTIMA). Description: microbe, parasite or virus in culture. The class given is cell-based. The following applies: Mycosarcoma maydis, read-out: USTIMA in vitro Growth Inhibition.
The test system of assay [7] is Mycosphaerella graminicola (Septoria tritici—SEPTTR). Description: In vitro fungal growth inhibition, Mycosphaerella graminicola (SEPTTR). The class given is cell-based. The following applies: Zymoseptoria tritici, read-out: SEPTTR in vitro Growth Inhibition.
For assay [8], the system named is Phytophthora infestans (PHYTIN). Nature of the assay: microbe, parasite or virus in culture. It is filed as cell-based. The following applies: Phytophthora infestans, read-out: PHYTIN in vitro Growth Inhibition.
[9] abbreviates: 100 ppm spray, wheat, 24 hour protectant.
The mark [10] stands for this setting: wheat plants sprayed at 100 ppm, inoculated after 24 hours.

Turning to `COc1ccnc(C(=O)Nc2cc(C)c(OC(=O)c3ccc(C(F)(F)F)cc3)c(C)c2)c1O` [Compound 457], the pest or weed control at 100 ppm in [1] (setting [9]) was under 25%; in assay [2] (setting [9]), under 25%; in the assay on Erysiphe graminis—ERYSGT (setting [9]), under 25%; in [4], under 25%; in the assay on Septoria tritici—SEPTTR (setting [9]) it was 25 to 74%. For the same compound, the inhibition at 25 ppm in assay [3] was under 80%; in assay [5] it was under 80%; in assay [6] (25 ppm in growth medium), over 80%; with Ustilago maydis (USTIMA), under 80%; in assay [7] (25 ppm in growth medium), under 80%; in assay [8] it was under 80%.

In the case of `COc1ccnc(C(=O)Nc2ccc(Oc3cc(Oc4ccccc4)ncn3)cc2)c1O` [Compound 468], the pest or weed control at 100 ppm was under 25% in assay [1] (setting [10]); under 25% in assay [2] (setting [10]); under 25% in the assay on Erysiphe graminis—ERYSGT (setting [10]); under 25% in [4]; 25 to 74% in the assay with Septoria tritici—SEPTTR (setting [10]). Besides, the inhibition at 25 ppm (in assay [3]; in assay [5]; in assay [6] (25 ppm in the growth medium); in the assay on Ustilago maydis (USTIMA); in assay [7] (25 ppm in the growth medium); in assay [8]) was under 80% in each case.

As to `COc1ccnc(C(=O)Nc2ccc(Oc3ccc(C(F)(F)F)cc3)nc2)c1O` [Compound 472], the pest or weed control at 100 ppm is 25 to 74% in assay [1] (setting [10]); 25 to 74% in assay [2] (setting [10]); under 25% in the assay on Erysiphe graminis—ERYSGT (setting [10]); under 25% in assay [4]; 25 to 74% with Septoria tritici—SEPTTR (setting [10]). Also, the inhibition at 25 ppm in assay [3] was over 80%; in assay [5], under 80%; in assay [6] (25 ppm in the growth medium), under 80%; in the assay with Ustilago maydis (USTIMA), under 80%; in [7] (25 ppm in the growth medium), under 80%; in assay [8], under 80%.

Take `CSc1ccnc(C(=O)NC2CC(C)(C)CC(C)(C)C2)c1O` [Compound 477]: the pest or weed control at 100 ppm in [1] (setting [10]) was 25 to 74%; in assay [2] (setting [10]) it was under 25%; in the assay on Erysiphe graminis—ERYSGT (setting [10]), under 25%; in assay [4], under 25%; in the assay on Septoria tritici—SEPTTR (setting [10]), 25 to 74%. Moreover, the inhibition at 25 ppm (in assay [3]; in assay [5]; in assay [6] (25 ppm in the growth medium); in the assay with Ustilago maydis (USTIMA); in [7] (25 ppm in the growth medium); in [8]) was under 80% each time.

As to `CC1(C)CC(NC(=O)c2nccc(Cl)c2O)CC(C)(C)C1` [Compound 480], the pest or weed control at 100 ppm in assay [1] (setting [10]) was 25 to 74%; in [2] (setting [10]) it was under 25%; in the assay with Erysiphe graminis—ERYSGT (setting [10]) it was under 25%; in assay [4], under 25%; in the assay with Septoria tritici—SEPTTR (setting [10]), under 25%. Moreover, the inhibition at 25 ppm in [3] was over 80%; in assay [5], under 80%; in assay [6] (25 ppm in the growth medium), under 80%; with Ustilago maydis (USTIMA), under 80%; in [7] (25 ppm in the growth medium) it was under 80%; in assay [8], under 80%.

As for `COc1ccc(O)c(C(=O)NC2COC(=O)[C@H](Cc3ccccc3)[C@@H](OC(=O)C(C)C)[C@H](C)OC2=O)n1` (some centres unmarked) [Compound 481], the pest or weed control at 100 ppm in [1] (setting [10]) is 25 to 74%; in [2] (setting [10]), under 25%; in the assay on Erysiphe graminis—ERYSGT (setting [10]), under 25%; in [4], under 25%; in the assay with Septoria tritici—SEPTTR (setting [10]), 25 to 74%. Further, the inhibition at 25 ppm (in assay [3]; in assay [5]; in assay [6] (25 ppm in the growth medium); in the assay with Ustilago maydis (USTIMA); in assay [7] (25 ppm in the growth medium); in [8]) was under 80% each time.

Consider `COc1ccc(CNC(=O)c2nc(Br)ccc2O)cc1` [Compound 482], for which the pest or weed control at 100 ppm in assay [1] (setting [10]) was 25 to 74%; in assay [2] (setting [10]) it was under 25%; with Erysiphe graminis—ERYSGT (setting [10]), under 25%; in assay [4], under 25%; with Septoria tritici—SEPTTR (setting [10]), 25 to 74%. For the same compound, the inhibition at 25 ppm (in [3]; in assay [5]; in assay [6] (25 ppm in the growth medium); in the assay on Ustilago maydis (USTIMA); in [7] (25 ppm in the growth medium); in assay [8]) was under 80% in each case.

With `O=C(NCc1sccc1Cl)c1nc(Br)ccc1O` [Compound 484], the pest or weed control at 100 ppm (in assay [1] (setting [10]); in assay [2] (setting [10]); in the assay on Erysiphe graminis—ERYSGT (setting [10]); in assay [4]; with Septoria tritici—SEPTTR (setting [10])) was under 25% in each case. Moreover, the inhibition at 25 ppm (in [3]; in [5]; in [6] (25 ppm in the growth medium); with Ustilago maydis (USTIMA); in assay [7] (25 ppm in the growth medium); in assay [8]) was under 80% throughout.

In the case of `CC(NC(=O)c1nc(Br)ccc1O)c1ccc(C(F)(F)F)cc1` (centres unmarked) [Compound 488], the pest or weed control at 100 ppm was under 25% in assay [1] (setting [10]); 25 to 74% in assay [2] (setting [10]); under 25% in the assay with Erysiphe graminis—ERYSGT (setting [10]); under 25% in assay [4]; 25 to 74% with Septoria tritici—SEPTTR (setting [10]). Besides, the inhibition at 25 ppm is over 80% in [3]; under 80% in [5]; under 80% in [6] (25 ppm in the growth medium); under 80% with Ustilago maydis (USTIMA); under 80% in assay [7] (25 ppm in the growth medium); under 80% in assay [8].

In the case of `CCCCCc1ccc(C(C)NC(=O)c2nc(Br)ccc2O)cc1` (centres unmarked) [Compound 489], the pest or weed control at 100 ppm in assay [1] (setting [10]) is under 25%; in assay [2] (setting [10]), 25 to 74%; in the assay on Erysiphe graminis—ERYSGT (setting [10]) it was under 25%; in assay [4] it was under 25%; in the assay with Septoria tritici—SEPTTR (setting [10]), under 25%. The inhibition at 25 ppm (in assay [3]; in assay [5]; in assay [6] (25 ppm in the growth medium); with Ustilago maydis (USTIMA); in [7] (25 ppm in the growth medium); in assay [8]) was under 80% in each case.

As for `CC(NC(=O)c1nc(Br)ccc1O)c1ccc(Oc2ccccc2)cc1` (centres unmarked) [Compound 490], the pest or weed control at 100 ppm was under 25% in [1] (setting [10]); 25 to 74% in assay [2] (setting [10]); under 25% with Erysiphe graminis—ERYSGT (setting [10]); under 25% in [4]; 25 to 74% with Septoria tritici—SEPTTR (setting [10]). Further, the inhibition at 25 ppm (in assay [3]; in [5]; in assay [6] (25 ppm in the growth medium); in the assay on Ustilago maydis (USTIMA); in assay [7] (25 ppm in the growth medium); in [8]) was under 80% in each case.

As to `O=C(NC(Cc1ccccc1)c1ccccc1)c1nc(Br)ccc1O` (centres unmarked) [Compound 491], the pest or weed control at 100 ppm (in assay [1] (setting [10]); in [2] (setting [10]); with Erysiphe graminis—ERYSGT (setting [10]); in assay [4]; in the assay on Septoria tritici—SEPTTR (setting [10])) was under 25% each time. Further, the inhibition at 25 ppm is under 80% in assay [3]; under 80% in [5]; under 80% in assay [6] (25 ppm in the growth medium); under 80% in the assay with Ustilago maydis (USTIMA); under 80% in assay [7] (25 ppm in the growth medium); over 80% in [8].

Turning to `O=C(Nc1ccccc1Oc1cccc(C(F)(F)F)c1)c1nc(Br)ccc1O` [Compound 492], the pest or weed control at 100 ppm in assay [1] (setting [10]) was under 25%; in assay [2] (setting [10]) it was under 25%; in the assay on Erysiphe graminis—ERYSGT (setting [10]), under 25%; in [4], under 25%; with Septoria tritici—SEPTTR (setting [10]), 25 to 74%. Also, the inhibition at 25 ppm (in assay [3]; in assay [5]; in [6] (25 ppm in the growth medium); with Ustilago maydis (USTIMA); in [7] (25 ppm in the growth medium); in assay [8]) was under 80% each time.

What is called inhibition is how much of the control response was suppressed.
